We go through six molecules from article PMC11477289, “Low-Basicity 5-HT6 Receptor Ligands from the Group of Cyclic Arylguanidine Derivatives and Their Antiproliferative Activity Evaluation” (International Journal of Molecular Sciences, 2024).

The target in one data set is T1, human 5-HT6 (Homo sapiens, UniProt P50406).
T1 construct: expressed in transfected cells
In words: [3H]-LSD radioligand binding assay, 5-HT6R. As to conditions: HEK293 expressing human 5-HT6R, read-out: 5-HT6 Ki. The method, then:
Next, the ligands’ affinity for the 5-HT6 receptors was evaluated in the [^3H]-LSD radioligand binding assay. Experiments were performed in a stable HEK293 cell line expressing the human 5-HT6R.
The pellets were stored at −80 °C.

Data set [1] can be described thus: Chromatographic hydrophobicity index on C18 column (lipophilicity). It is filed as physicochemical.
Data set [2] is described as follows: Affinity to phospholipids, IAM column (CHI IAM). The class given is physicochemical. As to conditions: IAM.PC.DD2 column, pH 7.4.
In data set [3] the target is human serum albumin (HSA) (Homo sapiens, UniProt P02768). In words: Binding to HSA, Chiralpak HSA column. As to conditions: Chiralpak HSA column. The source says:
We began with an assay for lipophilicity, affinity for phospholipids (for 40 compounds), and drug binding to human serum albumin (HSA) (for 20 compounds), using chromatographic protocols developed by Valko [46] and implemented in our laboratory. Compounds with the highest affinity for 5-HT6R and those showing the most promising ADMET parameters, including the possibility of BBB penetration, DDI, and lipophilicity, determined in silico in SwissADME [45], were selected for testing. These methods allowed the determination of chromatographic hydrophobicity indices (CHIs), binding to HSA (%HSA), and phospholipids (CHIIAM) using a single-gradient elution experiment and comparison to reference substances.
The use of columns modified with plasma proteins, such as HSA, also allows for the estimation of binding to HSA, which is the most dominant plasma protein (PP). Binding to PP affects drug pharmacokinetics, such as distribution, half-life, and clearance.
The mobile phase flow rate was 1.5 mL/min, and the column was maintained at 30 °C. • Chiralpak® HSA (50 mm × 4 mm; 5 µm with safety guard column; Daicel Chiral Technologies, West Chester, PA, USA), mobile phase A: 50 mM ammonium acetate, mobile phase B: HPLC-grade isopropanol (VWR International, Leuven, Belgium). For the first 15 min, the linear gradient from 0 to 20% isopropanol was applied and then held at 20% isopropanol for 12 min. In the last 5 min of the sequence, the mobile phase mixture received a pure ammonium acetate solution. The column temperature was held at 30 °C, whereas the flow rate was 0.9 mL/min.
The reference substances for the calibration of HSA, C18, and IAM columns were purchased, respectively: acetanilide, butyrophenone, diclofenac, and octanonophenone (Alfa Aesar, Haverhill, MA, USA); acetophenone, benzimidazole, colchicine, indole, indometacin, paracetamol, and theophylline (Sigma-Aldrich, Steinheim, Germany); nicardipine and nizatidine (Cayman Chemical, Ann Arbor, MI, USA); carbamazepine, heptanophenone, hexanophenone, propiophenone, and valerophenone (Acros Organic, Pittsburg, PA, USA). Before chromatographic experiments, solutes were dissolved in dimethyl sulfoxide (Avantor Performance Materials Poland S.A., Gliwice, Poland) to obtain a 200 µg/mL concentration. The detection was performed in the UV region at the wavelength from 190 nm to 300 nm. The injected volume was 5 μL, and each compound was analyzed in triplicate.

The subject of data set [4] is MCF7 breast carcinoma cell line. The experiment in a line: Antiproliferative activity (MTS), MCF7. As to conditions: Homo sapiens, MCF7, 72 h, read-out: IC50 Values MCF7.
Another data set relates to U87MG glioblastoma cells. In words: Antiproliferative activity (MTS), U87MG. The following applies: Homo sapiens, U-87 MG, 72 h, read-out: IC50 Values U87MG.
The test system of the next data set is U-251 glioblastoma cells. The experiment in a line: Antiproliferative activity (MTS), U-251. As to conditions: Homo sapiens, U-251, 72 h, read-out: IC50 Values U-251.
For data set [5], the system named is 1321N1 astrocytoma cell line. In words: Antiproliferative activity (MTS), 1321N1. The following applies: Homo sapiens, 1321-N1, 72 h, read-out: IC50 Values 1321N1.
For data set [6], the system named is LN-229 glioblastoma cell line. In words: Antiproliferative activity (MTS), LN-229. As to conditions: Homo sapiens, LN-229, 72 h, read-out: IC50 Values LN-229.
Data set [7] concerns AsPC-1 pancreas adenocarcinoma cell line. The experiment in a line: Antiproliferative activity (MTS), AsPC-1. As to conditions: Homo sapiens, ASPC1, 72 h, read-out: IC50 Values AsPC-1.

T1 sequence (P50406 whole entry): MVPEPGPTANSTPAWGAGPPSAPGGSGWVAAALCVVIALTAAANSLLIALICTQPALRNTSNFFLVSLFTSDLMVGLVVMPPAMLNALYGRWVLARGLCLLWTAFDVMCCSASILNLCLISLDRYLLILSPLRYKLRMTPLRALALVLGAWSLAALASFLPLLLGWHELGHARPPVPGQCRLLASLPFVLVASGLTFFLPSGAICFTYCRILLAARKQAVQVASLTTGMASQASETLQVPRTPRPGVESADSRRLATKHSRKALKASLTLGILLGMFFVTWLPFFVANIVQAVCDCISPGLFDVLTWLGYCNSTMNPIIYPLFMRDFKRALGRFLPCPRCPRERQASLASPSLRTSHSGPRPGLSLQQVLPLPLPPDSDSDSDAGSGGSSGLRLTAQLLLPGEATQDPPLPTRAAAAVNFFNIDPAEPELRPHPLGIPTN
human serum albumin (HSA), sequence (P02768 25-609): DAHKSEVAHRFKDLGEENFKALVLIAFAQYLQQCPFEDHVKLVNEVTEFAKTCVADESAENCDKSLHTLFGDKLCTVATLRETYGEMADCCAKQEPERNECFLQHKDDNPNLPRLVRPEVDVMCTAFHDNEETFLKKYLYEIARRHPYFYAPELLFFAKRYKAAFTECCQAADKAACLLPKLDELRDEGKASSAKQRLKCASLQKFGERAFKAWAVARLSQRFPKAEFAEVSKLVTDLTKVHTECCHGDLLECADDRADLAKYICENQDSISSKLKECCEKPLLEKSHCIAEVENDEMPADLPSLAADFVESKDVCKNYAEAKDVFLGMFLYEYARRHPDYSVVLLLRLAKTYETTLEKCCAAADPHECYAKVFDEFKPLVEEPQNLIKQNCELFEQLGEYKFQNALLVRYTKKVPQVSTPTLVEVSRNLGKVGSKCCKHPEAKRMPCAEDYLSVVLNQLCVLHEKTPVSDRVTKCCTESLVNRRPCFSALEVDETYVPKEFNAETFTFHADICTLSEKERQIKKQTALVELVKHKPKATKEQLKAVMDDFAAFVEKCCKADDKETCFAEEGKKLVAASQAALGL

As usually defined, the Ki is a dissociation constant, usually derived from enzyme kinetics or from competition with a known ligand. Usually melting point stands for the temperature of the solid-liquid transition. One may read the IC50 as the concentration that gives 50% inhibition. Turning to `COc1cccc2c1CNC(NS(=O)(=O)c1cccc3ccccc13)=N2` [PR 58, N -(5-methoxy-3,4-dihydroquinazolin-2-yl)naphthalene-1-sulfonamide], the melting point lay within 245 to 249 °C. The Ki on human 5-HT6 came to 0.172 ± 0.041 µM. In data set [1], the “CHI C18 pH 2.6” value is on record as 92.8, the “CHI C18 pH 7.4” value is listed as 90.8 and the “CHI C18 pH 10.5” value is given as 96.6. Also, the “CHI IAM” value in [2] is given as 41.4. For the same molecule, in data set [3], the “%HSA” value was determined as 97.3% and the logKHSA is on record as 1.4. Also, the IC50 in data set [4] was above 25 µM. In addition, in the data set with U87MG glioblastoma cells, the IC50 was above 25 µM. Also, the half-maximal inhibitory concentration (IC50) in the data set with U-251 glioblastoma cells was above 25 µM. Moreover, the half-maximal inhibitory concentration (IC50) in data set [5] was above 25 µM. In addition, the IC50 in data set [6] is above 25 µM. For the same molecule, the IC50 in data set [7] was above 25 µM.

For `O=S(=O)(NC1=Nc2cccc(Cl)c2CN1)c1ccc(Cl)c2ccccc12` [PR 53, 4-chloro-N-(5-chloro-3,4-dihydroquinazolin-2-yl)naphthalene-1-sulfonamide], the melting point was 217 to 223 °C. Besides, the Ki at human 5-HT6 was 0.189 ± 0.042 µM. In data set [1], the “CHI C18 pH 2.6” value is recorded as 111.2, the “CHI C18 pH 7.4” value is given as 109.2 and the “CHI C18 pH 10.5” value is 112.5. Further, the “CHI IAM” value in data set [2] was determined as 51.6. Besides, in [3], the “%HSA” value was determined as 99.5% and the logKHSA stood at 1.8. In addition, the half-maximal inhibitory concentration (IC50) in data set [4] was above 25 µM. In addition, the IC50 in the data set on U87MG glioblastoma cells is above 25 µM. Besides, the half-maximal inhibitory concentration (IC50) in the data set on U-251 glioblastoma cells is above 25 µM. Moreover, the IC50 in data set [5] is above 25 µM. Further, the IC50 in data set [6] is above 25 µM. For the same molecule, in data set [7], the IC50 is above 25 µM.

`O=S(=O)(Nc1nc2ccccc2[nH]1)c1cccc2ccccc12` [PR 11, N -(1H-1,3-benzodiazol-2-yl)naphthalene-1-sulfonamide] came in with a melting point above 315 °C. In addition, on human 5-HT6, the Ki stood at 0.325 ± 0.081 µM. Moreover, the “acid–base properties” value in [1] (comparison of CHI values at different pH levels) is on record as “acidic”. For the same molecule, in data set [1], the “CHI C18 pH 2.6” value is 78.8, the “CHI C18 pH 7.4” value was determined as 76.7 and the “CHI C18 pH 10.5” value is 58.4. Further, the “CHI IAM” value in data set [2] stood at 39.3. Further, in data set [3], the “%HSA” value stood at 95.7% and the logKHSA worked out at 1.3. In addition, the IC50 in data set [4] was above 25 µM. Further, the IC50 in the data set with U87MG glioblastoma cells was above 25 µM. The IC50 with U-251 glioblastoma cells is above 25 µM. In data set [5], the IC50 was above 25 µM. Moreover, the IC50 in data set [6] was above 25 µM. Besides, in data set [7], the IC50 is above 25 µM.

The molecule `O=S(=O)(NC1=Nc2ccccc2CN1)c1ccc2c(Cl)cccc2c1` [PR 30, 5-chloro-N-(3,4-dihydroquinazolin-2-yl)naphthalene-2-sulfonamide] displayed a melting point of 192 to 195 °C. On human 5-HT6, the inhibitory constant (Ki) amounted to 0.972 ± 0.242 µM. Besides, in [1], the “CHI C18 pH 2.6” value was determined as 99.1, the “CHI C18 pH 7.4” value was found to be 97.7 and the “CHI C18 pH 10.5” value turned out to be 100.4. Also, in [2], the “CHI IAM” value stood at 45.2. Further, the IC50 in data set [4] is above 25 µM. The IC50 in the data set on U-251 glioblastoma cells is above 25 µM. Further, the IC50 in data set [6] is above 25 µM. Further, the IC50 in [7] is above 25 µM.

For the molecule `O=S(=O)(NC1=Nc2ccccc2CCN1)c1cccc2ccccc12` [PR 78, N -(4,5-dihydro-3H-1,3-benzodiazepin-2-yl)naphthalene-1-sulfonamide], the melting point lay in the range of 178 to 180 °C. In addition, the Ki at human 5-HT6 is 0.273 ± 0.068 µM. The IC50 in data set [4] is above 25 µM. Also, the IC50 in the data set on U87MG glioblastoma cells was above 25 µM. For the same molecule, the IC50 in the data set with U-251 glioblastoma cells is above 25 µM. In data set [5], the IC50 is above 25 µM. The IC50 in [6] was above 25 µM. Further, in data set [7], the IC50 was above 25 µM.

As to `CC1NC(NS(=O)(=O)c2ccc3ccccc3c2)=Nc2ccc(Br)cc21` (centres unmarked) [PR 36, N -(6-bromo-4-methyl-3,4-dihydroquinazolin-2-yl)naphthalene-2-sulfonamide], at human 5-HT6, the Ki turned out to be 29.4 ± 7.36 µM. In addition, the IC50 (in data set [4]; in the data set on U87MG glioblastoma cells; in the data set with U-251 glioblastoma cells; in [5]; in data set [6]; in data set [7]) was above 25 µM throughout.
